The values below come from patent publication US11524938B2, “Aromatic sulfonamide derivatives” (Bayer Pharma Aktiengesellschaft, priority 2016, dated 2022).

“And” between values parts separate entries of the source, which are not always exact repeats. Equal entries are not always repeated.

Assay [1] concerns the target T1, human P2X4 (Homo sapiens, UniProt Q99571).
T1 sequence (Q99571 1-388): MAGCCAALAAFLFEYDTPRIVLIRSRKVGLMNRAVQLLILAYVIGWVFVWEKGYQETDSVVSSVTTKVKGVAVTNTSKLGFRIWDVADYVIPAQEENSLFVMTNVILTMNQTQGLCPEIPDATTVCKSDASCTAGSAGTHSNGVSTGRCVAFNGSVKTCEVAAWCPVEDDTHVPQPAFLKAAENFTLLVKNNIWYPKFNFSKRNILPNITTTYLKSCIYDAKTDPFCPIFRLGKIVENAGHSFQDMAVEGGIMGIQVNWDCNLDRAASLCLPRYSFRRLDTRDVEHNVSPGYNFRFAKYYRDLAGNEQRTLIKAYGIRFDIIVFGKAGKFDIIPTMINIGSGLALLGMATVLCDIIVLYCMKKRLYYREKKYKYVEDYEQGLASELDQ
Description: Human P2X4 HEK Cell FLIPR Assay. The note with it: agonist Bz-ATP at EC80; for Emax: HEK293, HEK293 cells, percentage of maximal inhibition, read-out: Human P2X4 HEK Cells (FLIPR Assay) avg Efficacy [%]; for IC50: HEK293 cells, individual values listed where some fall outside detection range. The class given is cell-based. The gist of the method: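 HEK293 cells stably expressing human P2X4, Fluo8-AM loaded 30 min at 37° C, then compound 30 min at room temperature (0.5% DMSO, pH 7.4 buffer with 1.8 mM CaCl2). Bz-ATP at its daily-determined EC80 added; calcium fluorescence read over 120 sec; IC50 from peak RFU normalized to agonist control, triplicates.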

Assay [2] deals with T2, endogenous P2X4 channels (Homo sapiens, UniProt Q99571).
T2 construct: measure calcium influx through endogenous P2X4 channels into primary human monocytes
T2 sequence (Q99571 1-388): T1 sequence (Q99571 1-388)
Nature of the assay: Human Monocyte P2X4 Assay (FLIPR). The format is cell-based. The note with it: primary human monocytes, 3 μM BzATP, one value per donor. The method, then: The principle of the assay is to measure calcium influx through endogenous P2X4 channels into primary human monocytes, following activation by 2′,3′-O-(4-benzoyl-benzoyl)-ATP (Bz-ATP). Intracellular calcium concentration changes were measured with a Flipr® (Molecular Devices) device using a calcium sensitive dye (Fluo-8). In primary monocytes P2X4 is located at the lysosome membrane, therefore exocytosis has to be triggered to expose P2X4 at the cellular membrane.
Human peripheral blood mononuclear cells (PBMCs) from anticoagulated blood (blood cells, BC) were isolated via density gradient centrifugation. Whole blood was diluted 1:3 with PBS. Samples of 30 mL were layered carefully on top of 15 mL Biocoll (BIOCHROM) in 50 mL centrifuge tubes (Falcon). Tubes were centrifuged at 914×g for 25 min at RT without brake. The PBMC layer was removed with a 10 mL pipette and transferred into tubes with ice-cold PBS in a total volume of 50 mL. Cells were washed twice by pelleting at 300×g at 4° C., for 10 min and for 5 min respectively. PBMCs were re-suspended in 10 mL medium (X-vivo, Biozym Scientific) and counted in a Neubauer chamber.
Monocytes were isolated by negative selection using the Monocyte isolation kit II from Miltenyi (#130-091-153) according to the instructions. Isolation should be done fast and cells and solutions should be kept on ice at any time. PBMCs in batches of 10 exp8 cells were pelleted (300×g, 10 min) and re-suspended with 300 μL MACS buffer in a 50 mL Falcon tube. FcR Blocking reagent (100 μl) and Biotin-Ab (100 μl) were added, mixed and incubated on ice for 10 min. MACS buffer (300 μL) and anti-Biotin Micro-beads (100 μL) were added, mixed and incubated on ice for 15 min. Cells were washed by pelleting (300×g for 10 min) and re-suspended in 500 μL MACS buffer. For each batch one separation column was placed in the MACS separator and rinsed with 3 mL MACS buffer. The cell suspension was added to the column, followed by 3×3 mL MACS buffer for washing, and the eluent containing the monocytes was collected. Cells were pelleted (300×g for 10 min), re-suspended in X-vivo medium and counted. Monocytes were seeded into fibronectin-coated micro-plates (384-well, black, flat transparent bottom; Corning #3848) at a density of 30,000 cells/well in 50 μL, and cultivated over night (37° C., 5% CO2).
Test substances were dissolved in 100% DMSO at a stock concentration of 10 mM and stored at −20° C. in aliquots. Serial dilutions (2×) were prepared in DMSO and diluted 500× with assay buffer to generate the antagonist plate. In the Flipr measurement, 10 μL per well were transferred (4× dilution) and a final top concentrations of 5 μM and 0.05% DMSO were obtained in the assay. Agonist BzATP was stored at 10 mM in aliquots and diluted to an intermediate concentration of 15 μM to generate the agonist plate. In the Flipr measurement, 10 μL per well were transferred (5× dilution) so that a final assay concentration of 3 μM was obtained.
For the experiment, the medium of the cell plate was discarded manually and 70 μL/well loading buffer was added and incubated for 1 h (37° C., 5% CO2). Loading buffer contained HBSS (w/o calcium/magnesium), 10 mM Hepes pH 7.4, 5 μM Fluo-8 (AM) (Tebu-bio) and 50 mM methylamine (Sigma) to trigger exocytosis. Loading buffer was discarded manually and 30 μL/well low-calcium assay buffer (5 mM KCl, 145 mM NaCl, 0.5 mM CaCl2, 13 mM glucose, 10 mM Hepes pH 7.4) was added. The antagonist plate was transferred (10 μL/well) and after 15 min at RT the agonist plate (10 μL/well) was transferred.
Agonist addition was recorded for 240 seconds after a 10 second baseline. For analysis, a baseline correction was applied, and the maximum of the curve was extracted. Data were normalized towards 0% inhibition (signal at 3 μM BzATP) and 100% inhibition (absence of BzATP stimulation) and fitted with a four-parameter sigmoidal inhibition curve using Prism GraphPad to obtain IC50 values.

As to `NS(=O)(=O)c1cc(NC(=O)Cc2ccccc2Cl)ccc1-n1cnc(Cl)n1` [Example 24, 2-(2-Chlorophenyl)-N-[4-(3-chloro-1H-1,2,4-triazol-1-yl)-3-sulfamoylphenyl]-acetamide], the Emax in assay [1] stood at 92%. In addition, the “Human P2X4 Monocytes (FLIPR Assay) Efficacy for different donors” value (“Human P2X4 Monocytes … for different donors” for short) in assay [2] was 77% and 88%.
For the compound `NS(=O)(=O)c1cc(NC(=O)Cc2ccccc2Cl)ccc1-n1cc(F)cn1` [Example 26, 2-(2-Chlorophenyl)-N-[4-(4-fluoro-1H-pyrazol-1-yl)-3-sulfamoylphenyl]acetamide], the Emax in assay [1] was determined as 85%. The “Human P2X4 Monocytes … for different donors” value in assay [2] is recorded as 88%.
For `NS(=O)(=O)c1cc(NC(=O)Cc2ccccc2Cl)ccc1-n1cc(Br)cn1` [Example 28, N-[4-(4-Bromo-1H-pyrazol-1-yl)-3-sulfamoylphenyl]-2-(2-chlorophenyl)acetamide], in assay [1], the Emax is 90%. In addition, in assay [2], the “Human P2X4 Monocytes … for different donors” value is 64% and 90%.
Regarding `COc1ccc(CC(=O)Nc2ccc(-n3cc(Cl)cn3)c(S(N)(=O)=O)c2)cc1` [Example 170, N-[4-(4-Chloro-1H-pyrazol-1-yl)-3-sulfamoylphenyl]-2-(4-methoxyphenyl)acetamide], in assay [1], the Emax was 70%. Also, in assay [2], the “Human P2X4 Monocytes … for different donors” value was 69% and 54%.
By IC50 is commonly meant the concentration that inhibits the measured activity by half. Regarding `NS(=O)(=O)c1cc(NC(=O)Cc2ccccc2F)cnc1-c1cnn(C(F)F)c1` [Example 321, N-{6-[1-(Difluoromethyl)-1H-pyrazol-4-yl]-5-sulfamoylpyridin-3-yl}-2-(2-fluorophenyl)acetamide], the Emax in assay [1] is 84%; in assay [2] (read-out: Human P2X4 Monocytes (FLIPR Assay) Efficacy for different donors), 49%. For the same compound, the “Human P2X4 Monocytes … for different donors” value in assay [2] was 34% and 46% and 95%. For the same compound, the IC50 in assay [2] (read-out: Human P2X4 Monocytes (FLIPR Assay) IC50 for different donors) is 157 nM.
`NS(=O)(=O)c1cc(NC(=O)Cc2ccccc2Cl)cnc1-n1cc(C(F)(F)F)cn1` [Example 380, 2-(2-Chlorophenyl)-N-{5-sulfamoyl-6-[4-(trifluoromethyl)-1H-pyrazol-1-yl]pyridin-3-yl}acetamide]: the Emax in assay [1] was 69%. Further, the “Human P2X4 Monocytes … for different donors” value in assay [2] is 32% and 107%.
Regarding `NS(=O)(=O)c1cc(NC(=O)Cc2ccccc2Cl)cnc1-n1cc(Cl)cn1` [Example 387, 2-(2-Chlorophenyl)-N-[6-(4-chloro-1H-pyrazol-1-yl)-5-sulfamoylpyridin-3-yl]acetamide], the Emax in assay [1] was 73%. In addition, the “Human P2X4 Monocytes … for different donors” value in assay [2] amounted to 51%.
As for `N#Cc1cnn(-c2ccc(NC(=O)Cc3cc(O)ccc3Cl)cc2S(N)(=O)=O)c1` [Example 556, 2-(2-Chloro-5-hydroxyphenyl)-N-[4-(4-cyano-1H-pyrazol-1-yl)-3-sulfamoylphenyl]acetamide], in assay [1], the Emax came to 94% and the IC50 amounted to 65 nM.
As to `N#Cc1cnn(-c2ccc(NC(=O)Cc3c(O)cccc3Cl)cc2S(N)(=O)=O)c1` [Example 557, 2-(2-Chloro-6-hydroxyphenyl)-N-[4-(4-cyano-1H-pyrazol-1-yl)-3-sulfamoylphenyl]acetamide], in assay [1], the Emax is 89% and the IC50 was 11 nM.
For the compound `N#Cc1cnn(-c2ccc(NC(=O)C(O)c3ccccc3Cl)cc2S(N)(=O)=O)c1` (stereo not shown) [Example 558, 2-(2-Chlorophenyl)-N-[4-(4-cyano-1H-pyrazol-1-yl)-3-sulfamoylphenyl]-2-hydroxyacetamide], in assay [1], the Emax was found to be 75% and the IC50 was 1380 nM.
